Measurements: patent US20250296959A1, “B7-H3 TARGETING PEPTIDES AND CONSTRUCTS THEREOF” (Mariana Oncology Inc., priority 2024, published 2025)
Starred links: 1 amine or outer side, 2 acyl side, 3 side chain; linkers in the order of their positions; H or OH if unused. Positions of bridges follow the written chain, without caps; N, C: chain ends. Non-standard residues stand in square brackets, D forms with d. Residues, ends and D or L forms follow the SMILES beside them. *: point of attachment. Ala(1-CH2CO2H-4-piperidyl) = N[C@@H](CC1CCN(CC(=O)O)CC1)C(=O)O; Ala(piperidin-4-yl) = O=C([C@H](CC1CCN([*:3])CC1)N[*:1])[*:2]; DOTA = O=C(O)CN1CCN(CC(=O)O)CCN(CC(=O)*)CCN(CC(=O)O)CC1; Phe(4-COOH) = N[C@@H](Cc1ccc(C(=O)O)cc1)C(=O)O; Trp(5-F) = N[C@@H](Cc1c[nH]c2ccc(F)cc12)C(=O)O; 1Nal = N[C@@H](Cc1cccc2ccccc12)C(=O)O; Ala(4-THP) = N[C@@H](CC1CCOCC1)C(=O)O; Val(3-OH) = CC(C)(O)[C@H](N)C(=O)O; Tle = CC(C)(C)[C@H](N)C(=O)O; hLeu = CC(C)CC[C@H](N)C(=O)O; Nle = CCCC[C@H](N)C(=O)O

Biological target: T1, human 4lg B7-H3 (Homo sapiens, UniProt Q5ZPR3)
T1 sequence (Q5ZPR3 29-534): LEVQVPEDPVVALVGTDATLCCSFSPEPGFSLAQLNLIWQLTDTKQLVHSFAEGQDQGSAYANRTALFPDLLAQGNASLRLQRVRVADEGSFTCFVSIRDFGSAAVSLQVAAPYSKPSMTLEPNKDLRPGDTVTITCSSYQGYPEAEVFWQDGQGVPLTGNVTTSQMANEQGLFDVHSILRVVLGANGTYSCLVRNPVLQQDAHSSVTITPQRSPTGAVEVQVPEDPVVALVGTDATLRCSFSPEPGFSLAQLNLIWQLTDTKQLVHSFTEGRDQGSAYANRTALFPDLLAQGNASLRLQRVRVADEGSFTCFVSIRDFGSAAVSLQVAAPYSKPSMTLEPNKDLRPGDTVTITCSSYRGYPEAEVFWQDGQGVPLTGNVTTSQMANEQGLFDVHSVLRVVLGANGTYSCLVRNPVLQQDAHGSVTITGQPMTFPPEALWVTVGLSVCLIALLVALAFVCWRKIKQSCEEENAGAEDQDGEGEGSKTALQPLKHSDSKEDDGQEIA
Test: Affinity determination by surface plasmon resonance (SPR) to 4Ig B7-H3
Details: SPR KD—37° C., 4Ig B7-H3; 37° C. flow cell temperature

**Q.** For `CC(=O)N[C@@H](CCC(C)C)C(=O)N[C@@H](Cc1ccc(O)cc1)C(=O)N[C@H]1CSSC[C@@H](C(=O)N[C@@H](Cc2c[nH]c3ccc(F)cc23)C(=O)N[C@@H](Cc2ccccc2)C(=O)N2CCC[C@H]2C(=O)N[C@H](CCCCNC(=O)CN2CCN(CC(=O)O)CCN(CC(=O)O)CCN(CC(=O)O)CC2)C(=O)O)NC(=O)[C@H](Cc2ccc(O)cc2)NC(=O)[C@H](C(C)C)NC(=O)[C@H](CC(=O)O)NC(=O)[C@H](Cc2ccc(C(=O)O)cc2)NC(=O)[C@H](CC2CCNCC2)NC(=O)CNC(=O)[C@H](C(C)C)NC1=O` [compound 313, Ac-hLeu-Y-C-V-G-PipAla-4COOHPhe-D-V-Y-C-5FW-F-Pro-dLys(DOTA)-COOH] (Ac-[hLeu]YCVG[Ala(piperidin-4-yl)][Phe(4-COOH)]DVYC[Trp(5-F)]FP[dK](DOTA)-OH; disulfide 3-11), which Kd is on record?
**A.** Its Kd is < 1 nM.

**Q.** Which Kd does the source give for `CC(=O)N[C@@H](CCC(C)C)C(=O)N[C@@H](Cc1ccc(O)cc1)C(=O)N[C@H]1CSSC[C@@H](C(=O)N[C@@H](Cc2cccc3ccccc23)C(=O)N[C@@H](Cc2ccccc2)C(=O)N2CCC[C@H]2C(=O)N[C@H](CCCCNC(=O)CN2CCN(CC(=O)O)CCN(CC(=O)O)CCN(CC(=O)O)CC2)C(N)=O)NC(=O)[C@H](Cc2ccc(O)cc2)NC(=O)[C@H](C(C)C)NC(=O)[C@H](CC(=O)O)NC(=O)[C@H](Cc2ccc(C(=O)O)cc2)NC(=O)[C@H](CC2CCNCC2)NC(=O)CNC(=O)[C@H](C(C)(C)C)NC1=O` [compound 315, Ac-hLeu-Y-C-Tbg-G-PipAla-4COOHPhe-D-V-Y-C-5FW-F-Pro-dLys(DOTA)-CONH2] (Ac-[hLeu]YC[Tle]G[Ala(piperidin-4-yl)][Phe(4-COOH)]DVYC[1Nal]FP[dK](DOTA)-NH2; disulfide 3-11) here?
**A.** Its Kd is 1 to 10 nM.

**Q.** `CC(=O)N[C@@H](CCC(C)C)C(=O)N[C@@H](Cc1ccc(O)cc1)C(=O)N[C@H]1CSSC[C@@H](C(=O)N[C@@H](Cc2c[nH]c3ccc(F)cc23)C(=O)N[C@@H](Cc2ccccc2)C(=O)N2CCC[C@H]2C(=O)N[C@H](CCCCNC(=O)CN2CCN(CC(=O)O)CCN(CC(=O)O)CCN(CC(=O)O)CC2)C(=O)O)NC(=O)[C@H](Cc2ccc(O)cc2)NC(=O)[C@H](C(C)C)NC(=O)[C@H](CC(=O)O)NC(=O)[C@H](CC2CCOCC2)NC(=O)[C@H](CC2CCN(CC(=O)O)CC2)NC(=O)CNC(=O)[C@H](C(C)(C)C)NC1=O` [compound 319, Ac-hLeu-Y-C-Tbg-G-[Pip(CH2CO2H)Ala]-ThpA-D-V-Y-C-5FW-F-Pro-dLys(DOTA)-COOH] (Ac-[hLeu]YC[Tle]G[Ala(1-CH2CO2H-4-piperidyl)][Ala(4-THP)]DVYC[Trp(5-F)]FP[dK](DOTA)-OH; disulfide 3-11) was tested. Which Kd did it give?
**A.** The Kd was 1 to 10 nM.

**Q.** With `CC(=O)N[C@@H](CCC(C)C)C(=O)N[C@@H](Cc1ccc(O)cc1)C(=O)N[C@H]1CSSC[C@@H](C(=O)N[C@@H](Cc2c[nH]c3ccc(F)cc23)C(=O)N[C@@H](Cc2ccccc2)C(=O)N2CCC[C@H]2C(=O)N[C@H](CCCCNC(=O)CN2CCN(CC(=O)O)CCN(CC(=O)O)CCN(CC(=O)O)CC2)C(N)=O)NC(=O)[C@H](Cc2ccc(O)cc2)NC(=O)[C@H](C(C)C)NC(=O)[C@H](CC(=O)O)NC(=O)[C@H](Cc2ccc(C(=O)O)cc2)NC(=O)[C@H](CC2CCN(CC(=O)O)CC2)NC(=O)CNC(=O)[C@H](C(C)C)NC1=O` [compound 320, Ac-hLeu-Y-C-V-G-[Pip(CH2CO2H)Ala]-4COOHPhe-D-V-Y-C-5FW-F-Pro-dLys(DOTA)-CONH2] (Ac-[hLeu]YCVG[Ala(1-CH2CO2H-4-piperidyl)][Phe(4-COOH)]DVYC[Trp(5-F)]FP[dK](DOTA)-NH2; disulfide 3-11) as the compound, how does the Kd read?
**A.** Its Kd is 1 to 10 nM.

**Q.** Which Kd does the source give for `CCCC[C@H](NC(=O)[C@H](Cc1c[nH]c2ccc(F)cc12)NC(=O)[C@@H]1CSSC[C@H](NC(=O)[C@H](Cc2ccc(O)cc2)NC(=O)[C@H](CCC(C)C)NC(C)=O)C(=O)N[C@@H](C(C)(C)C)C(=O)NCC(=O)N[C@@H](CC2CCN(CC(=O)O)CC2)C(=O)N[C@@H](CC2CCOCC2)C(=O)N[C@@H](CC(=O)O)C(=O)N[C@@H](C(C)C)C(=O)N[C@@H](Cc2ccc(O)cc2)C(=O)N1)C(=O)N1CCC[C@H]1C(=O)N[C@H](CCCCNC(=O)CN1CCN(CC(=O)O)CCN(CC(=O)O)CCN(CC(=O)O)CC1)C(=O)O` [compound 321, Ac-hLeu-Y-C-Tbg-G-[Pip(CH2CO2H)Ala]-ThpA-D-V-Y-C-5FW-Nle-Pro-dLys(DOTA)-COOH] (Ac-[hLeu]YC[Tle]G[Ala(1-CH2CO2H-4-piperidyl)][Ala(4-THP)]DVYC[Trp(5-F)][Nle]P[dK](DOTA)-OH; disulfide 3-11) here?
**A.** Its Kd is 10 to 100 nM.

**Q.** How did the Kd turn out when `CC[C@H](C)[C@@H]1NC(=O)[C@@H](NC(=O)[C@H](Cc2ccc(O)cc2)NC(=O)[C@H](CCC(C)C)NC(C)=O)CSSC[C@@H](C(=O)N[C@@H](Cc2c[nH]c3ccc(F)cc23)C(=O)N[C@@H](Cc2ccccc2)C(=O)N[C@H](C(=O)O)C(C)(C)O)NC(=O)[C@H](Cc2ccc(O)cc2)NC(=O)[C@H](C(C)C)NC(=O)[C@H](CC(=O)O)NC(=O)[C@H](CC2CCNCC2)NC(=O)[C@H](CCCCNC(=O)CN2CCN(CC(=O)O)CCN(CC(=O)O)CCN(CC(=O)O)CC2)NC(=O)CNC1=O` [compound 323, Ac-hLeu-Y-C-Ile-G-Lys(DOTA)-PipAla-D-V-Y-C-5FW-F-hydroxyVal-COOH] (Ac-[hLeu]YCIGK(DOTA)[Ala(piperidin-4-yl)]DVYC[Trp(5-F)]F[Val(3-OH)]-OH; disulfide 3-11) was run?
**A.** The Kd was 1 to 10 nM.

**Q.** For `CC[C@H](C)[C@@H]1NC(=O)[C@@H](NC(=O)[C@H](Cc2ccc(O)cc2)NC(=O)[C@H](CCC(C)C)NC(C)=O)CSSC[C@@H](C(=O)N[C@@H](Cc2c[nH]c3ccc(F)cc23)C(=O)N[C@@H](Cc2ccccc2)C(=O)N[C@H](C(=O)O)C(C)(C)O)NC(=O)[C@H](Cc2ccc(O)cc2)NC(=O)[C@H](C(C)C)NC(=O)[C@H](CC(=O)O)NC(=O)[C@H](CC2CCN(CC(=O)O)CC2)NC(=O)[C@H](CCCCNC(=O)CN2CCN(CC(=O)O)CCN(CC(=O)O)CCN(CC(=O)O)CC2)NC(=O)CNC1=O` [compound 324, Ac-hLeu-Y-C-Ile-G-Lys(DOTA)-Pip(CH2COOH)Ala-D-V-Y-C-5FW-F-hydroxyVal-COOH] (Ac-[hLeu]YCIGK(DOTA)[Ala(1-CH2CO2H-4-piperidyl)]DVYC[Trp(5-F)]F[Val(3-OH)]-OH; disulfide 3-11), which Kd is on record?
**A.** The Kd was 10 to 100 nM.

**Q.** For `CC(=O)N[C@@H](CCC(C)C)C(=O)N[C@@H](Cc1ccc(O)cc1)C(=O)N[C@H]1CSSC[C@@H](C(=O)N[C@@H](Cc2c[nH]c3ccc(F)cc23)C(=O)N[C@@H](Cc2ccccc2)C(=O)N[C@H](C(=O)O)C(C)(C)O)NC(=O)[C@H](Cc2ccc(O)cc2)NC(=O)[C@H](C(C)C)NC(=O)[C@H](CC(=O)O)NC(=O)[C@H](Cc2ccc(C(=O)O)cc2)NC(=O)[C@H](CCCCNC(=O)CN2CCN(CC(=O)O)CCN(CC(=O)O)CCN(CC(=O)O)CC2)NC(=O)CNC(=O)[C@H](C(C)C)NC1=O` [compound 325, Ac-hLeu-Y-C-V-G-Lys(DOTA)-4COOHPhe-D-V-Y-C-5FW-F-hydroxyVal-COOH] (Ac-[hLeu]YCVGK(DOTA)[Phe(4-COOH)]DVYC[Trp(5-F)]F[Val(3-OH)]-OH; disulfide 3-11), which Kd is on record?
**A.** The Kd was 10 to 100 nM.

**Q.** With `CC(=O)N[C@@H](CCC(C)C)C(=O)N[C@@H](Cc1ccc(O)cc1)C(=O)N[C@H]1CSSC[C@@H](C(=O)N[C@@H](Cc2c[nH]c3ccc(F)cc23)C(=O)N[C@@H](Cc2ccccc2)C(=O)N[C@H](C(=O)O)[C@@H](C)O)NC(=O)[C@H](Cc2ccc(O)cc2)NC(=O)[C@H](C(C)C)NC(=O)[C@H](CC(=O)O)NC(=O)[C@H](CC2CCN(CC(=O)O)CC2)NC(=O)[C@H](CCCCNC(=O)CN2CCN(CC(=O)O)CCN(CC(=O)O)CCN(CC(=O)O)CC2)NC(=O)CNC(=O)[C@H](C(C)(C)C)NC1=O` [compound 326, Ac-hLeu-Y-C-Tbg-G-Lys(DOTA)-Pip(CH2COOH)Ala-D-V-Y-C-5FW-F-Thr-COOH] (Ac-[hLeu]YC[Tle]GK(DOTA)[Ala(1-CH2CO2H-4-piperidyl)]DVYC[Trp(5-F)]FT-OH; disulfide 3-11) as the compound, how does the Kd read?
**A.** Its Kd is 10 to 100 nM.

**Q.** Which Kd does the source give for `CCCC[C@H](NC(=O)[C@H](Cc1c[nH]c2ccc(F)cc12)NC(=O)[C@@H]1CSSC[C@H](NC(=O)[C@H](Cc2ccc(O)cc2)NC(=O)[C@H](CCC(C)C)NC(C)=O)C(=O)N[C@@H](C(C)(C)C)C(=O)NCC(=O)N[C@@H](CCCCN)C(=O)N[C@@H](CC2CCOCC2)C(=O)N[C@@H](CC(=O)O)C(=O)N[C@@H](C(C)C)C(=O)N[C@@H](Cc2ccc(O)cc2)C(=O)N1)C(=O)N[C@H](C(=O)N[C@H](CCCCNC(=O)CN1CCN(CC(=O)O)CCN(CC(=O)O)CCN(CC(=O)O)CC1)C(=O)O)C(C)(C)O` [compound 327, Ac-hLeu-Y-C-Tbg-G-K-ThpA-D-V-Y-C-5FW-Nle-hydroxyVal-dLys(DOTA)-COOH] (Ac-[hLeu]YC[Tle]GK[Ala(4-THP)]DVYC[Trp(5-F)][Nle][Val(3-OH)][dK](DOTA)-OH; disulfide 3-11) here?
**A.** Its Kd is 10 to 100 nM.

**Q.** How did the Kd turn out when `CC(=O)N[C@@H](CCC(C)C)C(=O)N[C@@H](Cc1ccc(O)cc1)C(=O)N[C@H]1CSSC[C@@H](C(=O)N[C@@H](Cc2c[nH]c3ccc(F)cc23)C(=O)N[C@@H](Cc2ccccc2)C(=O)N[C@H](C(=O)O)[C@@H](C)O)NC(=O)[C@H](Cc2ccc(O)cc2)NC(=O)[C@H](C(C)C)NC(=O)[C@H](CC(=O)O)NC(=O)[C@H](CC2CCOCC2)NC(=O)[C@H](CCCCNC(=O)CN2CCN(CC(=O)O)CCN(CC(=O)O)CCN(CC(=O)O)CC2)NC(=O)CNC(=O)[C@H](C(C)(C)C)NC1=O` [compound 328, Ac-hLeu-Y-C-Tbg-G-Lys(DOTA)-ThpA-D-V-Y-C-5FW-F-Thr-COOH] (Ac-[hLeu]YC[Tle]GK(DOTA)[Ala(4-THP)]DVYC[Trp(5-F)]FT-OH; disulfide 3-11) was run?
**A.** The Kd was 10 to 100 nM.
